{"source": "paper PMC10905675", "about": "“INX-315, a Selective CDK2 Inhibitor, Induces Cell Cycle Arrest and Senescence in Solid Tumors” (Cancer Discovery, 2023)", "key": {"[1]": {"assay": "pKa", "format": "physicochemical"}, "[2]": {"test_system": "five lines without CCNE1 amplification (ovarian cancer)", "assay": "CellTiter Glo viability assay", "format": "cell-based", "conditions": "144 h, six days"}, "[3]": {"test_system": "OVCAR3 cells", "assay": "Cell cycle flow cytometry", "format": "cell-based", "conditions": "24 hours, as little as 30–100 nmol/L"}, "[4]": {"assay": "Microsomal stability assay", "format": "in vitro ADME", "description": "Microsomal stability was determined by Absorption Systems (Exton, PA). INX-315 was tested in mixed-gender human liver microsomes (Lot #1010420), male Sprague-Dawley rat liver microsomes (Lot #1910100), male CD-1 mouse liver microsomes (Lot #2010017), and male beagle dog liver microsomes (Lot #2010046) were purchased from XenoTech/BioIVT by Absorption Systems. The reaction mixture, minus NADPH, was prepared as described below. The test article was added into the reaction mixture at a final concentration of 1 µmol/L. The control compound, testosterone, was run simultaneously with the test article in a separate reaction. The reaction mixture (without cofactor) was equilibrated in a shaking water bath at 37°C for 5 minutes. The reaction was initiated by the addition of the cofactor, and the mixture was incubated in a shaking water bath at 37°C. Aliquots (100 µL) were withdrawn at 0, 10, 20, 30, and 60 minutes. Test article and testosterone samples were immediately combined with 400 µL of ice-cold 50/50 acetonitrile (ACN)/H2O containing 0.1% formic acid and internal standard to terminate the reaction. The samples were then mixed and centrifuged to precipitate proteins. All samples were assayed by LC-MS/MS using electrospray ionization. The peak area response ratio (PARR) of analyte to internal standard at each time point was compared to the PARR at time 0 to determine the percent remaining at each time point. Half-lives and clearance were calculated using GraphPad software (RRID:SCR_002798), fitting to a single-phase exponential decay equation."}, "[5]": {"test_system": "MKN1 cells", "assay": "Cell cycle flow cytometry", "format": "cell-based", "conditions": "24 hours, 100 nmol/L"}, "[6]": {"target": "T1, CDK4/cyclin D1 (Homo sapiens, UniProt P11802)", "T1 construct": "purchased ThermoFisher PV4400", "T1 sequence (P11802 whole entry)": "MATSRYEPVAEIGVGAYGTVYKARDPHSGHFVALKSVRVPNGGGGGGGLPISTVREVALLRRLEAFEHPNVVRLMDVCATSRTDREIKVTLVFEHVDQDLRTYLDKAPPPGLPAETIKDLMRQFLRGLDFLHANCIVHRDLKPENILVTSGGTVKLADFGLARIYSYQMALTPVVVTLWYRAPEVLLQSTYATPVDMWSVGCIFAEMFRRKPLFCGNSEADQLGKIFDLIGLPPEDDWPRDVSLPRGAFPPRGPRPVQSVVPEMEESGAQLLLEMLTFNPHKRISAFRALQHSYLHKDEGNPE", "T1 sequence (P24385 whole entry partner)": "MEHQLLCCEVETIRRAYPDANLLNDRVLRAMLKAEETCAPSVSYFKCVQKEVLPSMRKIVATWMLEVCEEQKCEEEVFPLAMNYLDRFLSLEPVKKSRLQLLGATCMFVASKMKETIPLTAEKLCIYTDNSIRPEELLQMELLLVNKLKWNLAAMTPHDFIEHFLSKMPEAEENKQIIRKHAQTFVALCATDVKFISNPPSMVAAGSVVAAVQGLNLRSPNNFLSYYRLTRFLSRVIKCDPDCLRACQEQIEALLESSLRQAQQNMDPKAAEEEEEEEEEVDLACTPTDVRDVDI", "assay": "Nanosyn biochemical assay", "description": "(§1) Compounds were tested in kinase assays (Nanosyn, Inc.). The assays were completed using microfluidic kinase detection technology (Caliper Assay Platform). The compounds were tested in 12-point dose–response format in singlicate at the Km for ATP. Phosphoacceptor substrate peptide concentration used was 1 µmol/L and staurosporine was used as the reference compound for all assays. Details for individual Nanosyn assays performed are provided here: […]"}, "[7]": {"target": "T2, CDK6/cyclin D3 (Homo sapiens, UniProt Q00534)", "T2 construct": "purchased Carna 04-107", "assay": "Nanosyn biochemical assay", "conditions": "Supp Fig S1D, representative dose response curve, read-out: IC50 CDK6 - Cyclin D3", "description": "as §1"}, "[8]": {"target": "T3, CDK5/p25 (Homo sapiens, UniProt Q00535)", "T3 construct": "purchased BPS 40105", "T3 sequence (Q00535 whole entry)": "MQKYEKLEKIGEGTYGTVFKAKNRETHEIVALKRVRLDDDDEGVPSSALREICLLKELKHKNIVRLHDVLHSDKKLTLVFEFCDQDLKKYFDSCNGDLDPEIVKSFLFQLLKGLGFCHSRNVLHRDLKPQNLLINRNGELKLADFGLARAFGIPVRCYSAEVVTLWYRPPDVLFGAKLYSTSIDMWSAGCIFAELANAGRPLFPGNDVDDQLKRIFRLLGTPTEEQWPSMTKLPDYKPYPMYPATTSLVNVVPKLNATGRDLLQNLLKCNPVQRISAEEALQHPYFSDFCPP", "T3 sequence (Q15078 99-307 partner limits assumed)": "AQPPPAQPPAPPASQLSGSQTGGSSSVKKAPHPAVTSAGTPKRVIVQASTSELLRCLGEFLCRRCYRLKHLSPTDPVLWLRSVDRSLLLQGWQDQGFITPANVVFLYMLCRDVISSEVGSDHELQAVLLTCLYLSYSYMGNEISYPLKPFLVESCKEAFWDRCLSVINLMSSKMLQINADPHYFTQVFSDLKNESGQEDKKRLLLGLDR", "assay": "Nanosyn biochemical assay", "conditions": "ATP at Km, value (SEM), read-out: IC50 (nmol/L) CDK5/p25", "description": "as §1"}, "[9]": {"target": "T4, CDK5 (Homo sapiens, UniProt Q00535)", "T4 construct": "purchased ThermoFisher PV3000", "T4 sequence (Q00535 whole entry)": "as the sequence (Q00535 whole entry) above", "T4 sequence (Q15078 2-307 partner limits assumed)": "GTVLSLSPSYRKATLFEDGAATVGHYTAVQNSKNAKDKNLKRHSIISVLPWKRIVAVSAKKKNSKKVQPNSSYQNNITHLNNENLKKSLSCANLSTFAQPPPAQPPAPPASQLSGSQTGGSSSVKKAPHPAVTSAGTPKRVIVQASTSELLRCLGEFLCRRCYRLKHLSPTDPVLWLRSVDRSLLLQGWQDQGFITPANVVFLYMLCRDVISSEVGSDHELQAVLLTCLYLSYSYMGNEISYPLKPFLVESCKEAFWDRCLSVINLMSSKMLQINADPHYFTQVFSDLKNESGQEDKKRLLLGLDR", "assay": "Nanosyn biochemical assay", "description": "as §1"}, "[10]": {"target": "T5, CDK1/cyclin B1 (Homo sapiens, UniProt P06493)", "T5 construct": "purchased Millipore 14-450M", "T5 sequence (P06493 whole entry)": "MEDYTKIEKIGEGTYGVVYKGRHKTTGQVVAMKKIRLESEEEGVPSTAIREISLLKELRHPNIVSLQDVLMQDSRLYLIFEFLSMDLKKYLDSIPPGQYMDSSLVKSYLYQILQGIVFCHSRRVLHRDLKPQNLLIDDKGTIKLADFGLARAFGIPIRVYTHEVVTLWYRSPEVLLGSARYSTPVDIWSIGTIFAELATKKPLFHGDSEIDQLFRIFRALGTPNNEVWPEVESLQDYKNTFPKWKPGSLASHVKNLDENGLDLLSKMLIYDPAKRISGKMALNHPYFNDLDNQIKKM", "T5 sequence (P14635 whole entry partner)": "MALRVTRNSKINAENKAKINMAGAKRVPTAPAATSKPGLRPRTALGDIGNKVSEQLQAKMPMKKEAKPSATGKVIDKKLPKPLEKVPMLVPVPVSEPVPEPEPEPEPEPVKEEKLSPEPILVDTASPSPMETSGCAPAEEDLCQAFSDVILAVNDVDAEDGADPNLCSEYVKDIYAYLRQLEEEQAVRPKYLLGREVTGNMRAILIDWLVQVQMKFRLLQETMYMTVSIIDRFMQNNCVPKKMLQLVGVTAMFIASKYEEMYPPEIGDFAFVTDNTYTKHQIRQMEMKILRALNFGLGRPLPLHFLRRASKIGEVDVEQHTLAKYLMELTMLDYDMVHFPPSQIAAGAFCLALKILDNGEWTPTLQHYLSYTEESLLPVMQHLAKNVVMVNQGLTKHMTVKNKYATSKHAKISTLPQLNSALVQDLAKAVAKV", "assay": "Nanosyn biochemical assay", "description": "as §1"}, "[11]": {"target": "T6, CDK2/cyclin E1 (Homo sapiens, UniProt P24941)", "T6 construct": "purchased Millipore 14-475", "assay": "Nanosyn biochemical assay", "conditions": "for IC50: Nanosyn", "description": "as §1"}, "[12]": {"target": "T7, CDK7 (Homo sapiens, UniProt P50613)", "T7 construct": "purchased Carna 04-108", "T7 sequence (P50613 whole entry)": "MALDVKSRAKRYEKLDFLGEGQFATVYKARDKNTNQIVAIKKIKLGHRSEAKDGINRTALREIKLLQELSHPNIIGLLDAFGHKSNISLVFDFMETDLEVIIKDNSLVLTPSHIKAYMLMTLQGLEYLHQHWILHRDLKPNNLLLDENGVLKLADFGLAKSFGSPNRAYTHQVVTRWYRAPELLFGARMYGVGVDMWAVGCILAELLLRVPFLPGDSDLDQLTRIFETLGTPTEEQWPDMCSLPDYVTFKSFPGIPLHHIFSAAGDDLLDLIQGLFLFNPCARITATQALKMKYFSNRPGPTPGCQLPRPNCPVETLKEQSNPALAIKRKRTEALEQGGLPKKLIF", "T7 sequence (P51946 whole entry partner)": "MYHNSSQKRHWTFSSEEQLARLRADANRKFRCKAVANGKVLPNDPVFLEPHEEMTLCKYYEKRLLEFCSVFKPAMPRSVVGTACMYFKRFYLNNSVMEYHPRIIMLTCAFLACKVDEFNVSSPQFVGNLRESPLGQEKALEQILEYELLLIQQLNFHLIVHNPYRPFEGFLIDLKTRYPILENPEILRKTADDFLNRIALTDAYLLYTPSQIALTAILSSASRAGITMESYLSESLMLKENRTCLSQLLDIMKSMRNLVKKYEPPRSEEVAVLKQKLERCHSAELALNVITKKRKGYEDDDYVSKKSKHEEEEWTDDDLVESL", "T7 sequence (P51948 whole entry partner)": "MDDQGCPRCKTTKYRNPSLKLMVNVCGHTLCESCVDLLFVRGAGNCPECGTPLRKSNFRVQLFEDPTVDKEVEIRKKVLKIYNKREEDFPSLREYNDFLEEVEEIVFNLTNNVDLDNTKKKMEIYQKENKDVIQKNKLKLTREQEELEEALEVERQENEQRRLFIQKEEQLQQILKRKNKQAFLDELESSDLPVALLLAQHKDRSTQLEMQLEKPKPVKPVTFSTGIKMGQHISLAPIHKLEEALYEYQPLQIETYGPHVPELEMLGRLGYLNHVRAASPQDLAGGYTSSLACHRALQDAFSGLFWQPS", "assay": "Nanosyn biochemical assay", "conditions": "Supp Fig S1C, value (SEM), read-out: IC50 (nM) CDK7", "description": "as §1"}, "[13]": {"target": "T8, CDK9/cyclin T1 (Homo sapiens, UniProt P50750)", "T8 construct": "purchased Carna 04-110", "T8 sequence (P50750 whole entry)": "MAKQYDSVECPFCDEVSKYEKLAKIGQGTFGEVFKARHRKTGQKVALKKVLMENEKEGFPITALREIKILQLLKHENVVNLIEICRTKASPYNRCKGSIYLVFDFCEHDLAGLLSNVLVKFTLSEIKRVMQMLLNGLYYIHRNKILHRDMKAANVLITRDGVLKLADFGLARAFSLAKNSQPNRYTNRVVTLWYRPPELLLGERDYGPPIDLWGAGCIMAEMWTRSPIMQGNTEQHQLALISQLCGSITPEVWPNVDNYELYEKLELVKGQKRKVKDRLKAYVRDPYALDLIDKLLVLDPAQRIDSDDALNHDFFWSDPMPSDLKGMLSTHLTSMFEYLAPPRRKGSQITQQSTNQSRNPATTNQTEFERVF", "T8 sequence (O60563 whole entry partner)": "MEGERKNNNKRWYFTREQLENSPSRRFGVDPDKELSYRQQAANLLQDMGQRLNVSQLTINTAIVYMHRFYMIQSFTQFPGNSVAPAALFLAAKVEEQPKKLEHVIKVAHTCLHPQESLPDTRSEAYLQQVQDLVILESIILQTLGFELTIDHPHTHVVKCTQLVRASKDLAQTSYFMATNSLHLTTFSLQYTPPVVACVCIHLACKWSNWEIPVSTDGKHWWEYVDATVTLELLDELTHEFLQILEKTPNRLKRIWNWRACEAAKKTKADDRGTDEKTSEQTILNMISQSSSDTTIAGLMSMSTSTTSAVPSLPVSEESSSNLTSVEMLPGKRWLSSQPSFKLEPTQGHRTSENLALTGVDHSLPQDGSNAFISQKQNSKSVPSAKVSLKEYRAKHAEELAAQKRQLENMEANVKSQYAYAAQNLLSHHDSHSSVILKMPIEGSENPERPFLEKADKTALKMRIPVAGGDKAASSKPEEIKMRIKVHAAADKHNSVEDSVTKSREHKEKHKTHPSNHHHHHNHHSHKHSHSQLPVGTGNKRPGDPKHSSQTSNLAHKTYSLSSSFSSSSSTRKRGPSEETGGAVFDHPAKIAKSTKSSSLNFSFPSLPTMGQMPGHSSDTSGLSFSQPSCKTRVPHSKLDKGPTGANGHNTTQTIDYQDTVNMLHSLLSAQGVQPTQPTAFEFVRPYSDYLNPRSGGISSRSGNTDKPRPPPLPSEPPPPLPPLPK", "assay": "Nanosyn biochemical assay", "conditions": "Supp Fig S1D, representative dose response curve, read-out: IC50 CDK9 - Cyclin T1", "description": "as §1"}, "[14]": {"target": "T9, CDK2/cyclin A2 (Homo sapiens, UniProt P24941)", "T9 construct": "purchased Millipore 14-448", "assay": "Nanosyn biochemical assay", "conditions": "Supp Fig S1D, representative dose response curve, read-out: IC50 CDK2 - Cyclin A", "description": "as §1"}, "[15]": {"target": "T10, CDK3/cyclin E1 (Homo sapiens, UniProt Q00526)", "T10 construct": "purchased BPS 40103", "assay": "Nanosyn biochemical assay", "description": "as §1"}}, "note": "Where two headings read alike, the source gives them in different places."}
{"molecule": "NS(=O)(=O)c1ccc(Nc2ncc3cc4n(c3n2)C2(CCCCC2)C(=O)NN4)cc1", "note": "[INX-315]", "values": [{"measurement": "pKa", "setting": "[1]; read-out: pKa (acidic)", "value": 10.4}, {"measurement": "pKa", "setting": "[1]; read-out: pKa (basic)", "value": 5.08}, {"measurement": "IC50", "setting": "[2]; read-out: IC50, range", "value": "0.159 to 3.56", "unit": "µM"}, {"measurement": "IC50", "setting": "[2]; read-out: mean IC50", "value": 1.44, "unit": "µM"}, {"measurement": "cell cycle effect", "setting": "[3]", "value": "potent G1 arrest"}, {"measurement": "half-life at 1 µmol/L", "setting": "[4]; both sexes, human, liver microsomes, 1 µmol/L, 60 min incubation, read-out: Half-life", "value": "> 1", "unit": "h"}, {"measurement": "half-life at 1 µmol/L", "setting": "[4]; both sexes, human, liver microsomes, longer than the duration of the experiment, read-out: calculated half-life (in parenthesis)", "value": 1.78, "unit": "h"}, {"measurement": "half-life at 1 µmol/L", "setting": "[4]; male, CD-1, liver microsomes, Mouse microsomes, 60 min incubation", "value": 0.44, "unit": "h"}, {"measurement": "half-life at 1 µmol/L", "setting": "[4]; male, Sprague-Dawley, rat, liver microsomes, 1 µmol/L, 60 min incubation, read-out: Half-life", "value": "> 1", "unit": "h"}, {"measurement": "half-life at 1 µmol/L", "setting": "[4]; male, Sprague-Dawley, rat, liver microsomes, longer than the duration of the experiment, read-out: calculated half-life (in parenthesis)", "value": 1.11, "unit": "h"}, {"measurement": "half-life at 1 µmol/L", "setting": "[4]; male, beagle, dog, liver microsomes, 1 µmol/L, 60 min incubation, read-out: Half-life", "value": "> 1", "unit": "h"}, {"measurement": "half-life at 1 µmol/L", "setting": "[4]; male, beagle, dog, liver microsomes, longer than the duration of the experiment, read-out: calculated half-life (in parenthesis)", "value": 1.34, "unit": "h"}, {"measurement": "cell cycle effect", "setting": "[5]", "value": "strong G1 arrest"}, {"measurement": "IC50", "setting": "[6]; Supp Fig S1C, value (SEM), read-out: IC50 (nM) CDK4/cyclin D1", "value": 126, "unit": "nM"}, {"measurement": "IC50", "setting": "[6]; Supp Fig S1D, representative dose response curve, read-out: IC50 CDK4 - Cyclin D", "value": 127, "unit": "nM"}, {"measurement": "IC50", "setting": "[7]", "value": 0.291, "unit": "µM"}, {"measurement": "IC50", "setting": "[8]", "value": 21.4, "unit": "nmol/L"}, {"measurement": "IC50", "setting": "[9]; ATP at Km, value (SEM), read-out: IC50 (nmol/L) CDK5", "value": 23.1, "unit": "nmol/L"}, {"measurement": "IC50", "setting": "[9]; Supp Fig S1C, value (SEM), read-out: IC50 (nM) CDK5", "value": 23.1, "unit": "nmol/L"}, {"measurement": "IC50", "setting": "[9]; Supp Fig S1D, representative dose response curve, read-out: IC50 CDK5 - p35", "value": 23.1, "unit": "nmol/L"}, {"measurement": "IC50", "setting": "[10]; Supp Fig S1C, value (SEM), read-out: IC50 (nM) CDK1/B1", "value": 30, "unit": "nM"}, {"measurement": "IC50", "setting": "[10]; Supp Fig S1D, representative dose response curve, read-out: IC50 CDK1 - Cyclin B", "value": 29.1, "unit": "nM"}, {"measurement": "IC50", "setting": "[11]; Supp Fig S1C, value (SEM), read-out: IC50 (nM) CDK2/cyclin E1", "value": 0.6, "unit": "nM"}, {"measurement": "IC50", "setting": "[11]; Supp Fig S1D, representative dose response curve, read-out: IC50 CDK2 - Cyclin E", "value": 0.644, "unit": "nM"}, {"measurement": "increase in potency on CDK2 relative to compound C", "setting": "[11]; biochemical IC50s", "value": "~10", "unit": "fold"}, {"measurement": "selectivity for CDK2 compared with CDK1", "setting": "[11]; biochemical IC50s", "value": 50, "unit": "fold"}, {"measurement": "IC50", "setting": "[12]", "value": "> 10000", "unit": "nM"}, {"measurement": "IC50", "setting": "[13]", "value": 0.0386, "unit": "µM"}, {"measurement": "IC50", "setting": "[14]", "value": 0.00296, "unit": "µM"}, {"measurement": "IC50", "setting": "[15]; ATP at Km, value (SEM), read-out: IC50 (nmol/L) CDK3/cyclin E1", "value": 15.1, "unit": "nmol/L"}, {"measurement": "IC50", "setting": "[15]; Supp Fig S1D, representative dose response curve, read-out: IC50 CDK3 - Cyclin E", "value": 15.1, "unit": "nmol/L"}]}
